Patent publication US8598208B2, “Pyridine derivatives as S1P1/EDG1 receptor modulators” (Actelion Pharmaceuticals Ltd., priority 2007, dated 2013)

What follows are compounds tested on circulating lymphocytes (assay: Assessment of in vivo efficacy: circulating lymphocytes after oral administration). Conditions: 6 h after oral administration of 3 mg/kg, male Wistar rats, compared to vehicle group; mean ± SEM.
Parameters: species or system normotensive male Wistar rats
Method: The efficacy of the compounds of Formula (I) is assessed by measuring the circulating lymphocytes after oral administration of 3 to 30 mg/kg of a compound of Formula (I) to normotensive male Wistar rats. The animals are housed in climate-controlled conditions with a 12 h-light/dark cycle, and have free access to normal rat chow and drinking water. Blood is collected before and 3, 6 and 24 h after drug administration. Full blood is subjected to hematology using Advia Hematology system (Bayer Diagnostics, Zürich, Switzerland).
All data are presented as mean±SEM. Statistical analyses are performed by analysis of variance (ANOVA) using Statistica (StatSoft) and the Student-Newman-Keuls procedure for multiple comparisons. The null hypothesis is rejected when p≦0.05.

Row | Structure (SMILES) | Lymphocyte counts
1 | CCCc1cc(-c2nc(-c3cc(C)nc(C)c3)no2)cc(C)n1 [Example 6] | −68% ± 3%^

The compounds below were run against recombinant human S1P1 receptor (Homo sapiens, UniProt P21453) (assay: GTPγS assay to determine EC50 values). Conditions: membrane preparations of CHO cells expressing recombinant human S1P1 receptor; pH 7.4; read-out: EC50 (agonistic activity, 35S-GTPγS binding).
Format: biochemical
Method: GTPγS binding assays are performed in 96 well microtiter plates (Nunc, 442587) in a final volume of 200 μl, using membrane preparations of CHO cells expressing recombinant human S1P1 receptor. Assay conditions are 20 mM Hepes (Fluka, 54461), 100 mM NaCl (Fluka, 71378), 5 mM MgCl2 (Fluka, 63064), 0.1% BSA (Calbiochem, 126609), 1 μM GDP (Sigma, G-7127), 2.5% DMSO (Fluka, 41644), […] ^35S-GTPγS (Amersham Biosciences, SJ1320). The pH is 7.4. Test compounds are dissolved and diluted in 100% DMSO and pre-incubated at room temperature for 30 min in 150 μl of the above assay buffer, in the absence of ^35S-GTPγS. After addition of 50 μl of ^35S-GTPγS, the assay is incubated for 1 h at rt. The assay is terminated by transfer of the reaction mixture to a Multiscreen plate (Millipore, MAHFC1H60) using a cell harvester from Packard Biosciences, and the plates are washed with ice-cold 10 mM Na2HPO4/NaH2PO4 (70%/30%), dried, sealed at the bottom and, after addition of 25 μl MicroScint20 (Packard Biosciences, order#6013621), sealed on the top. Membrane-bound ^35S-GTPγS is measured with a TopCount from Packard Biosciences.
EC50 is the concentration of agonist inducing 50% of the maximal specific ^35S-GTPγS binding. Specific binding is determined by subtracting non-specific binding from maximal binding. Maximal binding is the amount of cpm bound to the Multiscreen plate in the presence of 10 μM of S1P. Non-specific binding is the amount of binding in the absence of an agonist in the assay.

Sequence of recombinant human S1P1 receptor (P21453 whole entry): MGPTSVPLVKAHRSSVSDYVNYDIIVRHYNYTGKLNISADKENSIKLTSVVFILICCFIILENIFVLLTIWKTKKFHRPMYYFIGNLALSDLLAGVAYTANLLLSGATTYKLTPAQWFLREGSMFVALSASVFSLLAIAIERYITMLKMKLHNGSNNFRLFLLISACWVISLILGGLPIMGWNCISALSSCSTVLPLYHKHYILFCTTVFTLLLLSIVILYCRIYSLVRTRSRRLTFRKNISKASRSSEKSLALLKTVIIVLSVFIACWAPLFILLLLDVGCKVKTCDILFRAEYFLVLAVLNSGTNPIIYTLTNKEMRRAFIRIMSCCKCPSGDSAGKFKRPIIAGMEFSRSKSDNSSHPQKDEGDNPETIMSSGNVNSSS

Row | EC50 | Structure (SMILES)
2 | 5.2 nM | CCc1cc(-c2noc(-c3cc(C)nc(CC)c3)n2)cc(C)n1 [Example 2]
3 | 2.4 nM | CCCc1cc(-c2nc(-c3cc(C)nc(C)c3)no2)cc(C)n1 [Example 6]
4 | 0.4 nM | Cc1cc(-c2noc(-c3cc(C)nc(CC(C)C)c3)n2)cc(C)n1 [Example 8]
5 | 0.9 nM | CCNc1cc(-c2nc(-c3cc(C)nc(CC)c3)no2)cc(C)n1 [Example 29]
6 | 6.1 nM | Cc1cc(-c2nc(-c3cnc(NC(C)C)c(C)c3)no2)cc(CC(C)C)n1 [Example 39]
7 | 0.4 nM | CCc1cc(-c2noc(-c3cc(C)nc(C(CC)CC)c3)n2)cc(C)n1 [Example 45]
8 | 1 nM | CCc1cc(-c2nc(-c3cc(C)nc(C)c3)no2)cc(CC(C)C)n1 [Example 61]
9 | 1.4 nM | CCc1cc(-c2noc(-c3cc(CC)nc(CC(C)C)c3)n2)cc(C)n1 [Example 62]
10 | 0.5 nM | CCC(CC)c1cc(-c2nc(-c3cc(C)nc(C)c3)no2)cc(C)n1 [Example 65]
11 | 0.3 nM | Cc1cc(-c2noc(-c3cc(C)nc(C4CCCC4)c3)n2)cc(C)n1 [Example 66]
12 | 2.1 nM | CCc1cc(-c2noc(-c3cc(OC)nc(C4CCCC4)c3)n2)cc(C)n1 [Example 117]
